The values below come from US4341895A (priority 1981, dated 1982).

Data set [1] in a line: Tail Flick (analgesic agonist activity). Format: in vivo. The conditions noted are these: sc; rat, as free base; tested as p-toluenesulfonate salt.
For another data set, the system named is phenazocine. Kind of data set: Antagonist activity vs. phenazocine. The class given is in vivo. The conditions noted are these: rat, s.c., as free base; doses in parentheses; tested as p-toluenesulfonate salt.
For another data set, the system named is ACh. The data set is described as follows: ACh (acetylcholine) analgesic test, procedure of Collier et al. The class given is in vivo. The conditions noted are these: sc; mouse, as free base; range in parentheses; tested as p-toluenesulfonate salt. The source says: (§1) The compounds of formula I and their acid-addition salts are useful as analgesic agents, as determined by standard tests performed on the compounds of formula I where R is ethoxycarbonyl and propionyl in the form of their p-toluenesulfonate salts.
(§2) ^a All activities are expressed in mg/kg s.c., free base.
^e Procedure (in mouse) of H.O.J. Collier, L. C. Dineen, C. A. Johnso
and C. Schneider, Br. J. Pharmacol. Chemother. 32, 295 (1968).

The next data set can be described thus: Straub Tail observation. The class given is in vivo. As to conditions: mouse, s.c.; for locomotor activity (footnote i to Straub Tail): at 75 mg/kg (R = C2 H5 COO) or 30 & 60 mg/kg (R = C2 H5 CO).
Description: as §1, §2

The next data set concerns Bradykinin. Kind of data set: Bradykinin analgesic test. The conditions noted are these: rat. Format: in vivo.
Description: as §1, §2
^f G. Deffenu, L. Pegrassi and B. Lumachi, J. Pharm. Pharmacol. 18,
135 (1966); B. A. Berkowitz and E. L. Way, J. Pharmacol. Exp. Ther. 177,

The conditions of data set [2]: in vivo; cited from earlier work.

Structures are written as SMILES.

As usually defined, the ED50 is the dose that gives a 50% effect, or the effect in half of the subjects. Consider `CCC(=O)N1[C@@H]2CC[C@H]1[C@H](O)[C@@H](NCc1ccccc1)C2` (relative stereo) [I (R = C2 H5 CO), 3α-Benzylamino-8-propionyl-1αH,5αH-nortropan-2β-ol], for which the figures for the ED50 (in data set [1]; in the data set with ACh) were 44 ± 3.5 mg/kg and 16 mg/kg, respectively. Also, the “Antagonist activity vs. phenazocine” value in the data set on phenazocine was “inactive (10)”. In addition, the “locomotor activity (footnote i to Straub Tail)” value in the data set “Straub Tail observation” is “Increased locomotor activity”.

For `CCOC(=O)N1[C@@H]2CC[C@H]1[C@H](O)[C@@H](NCc1ccccc1)C2` (relative stereo) [I (R = C2 H5 COO), Ethyl 3α-benzylamino-2β-hydroxy-1αH,5αH-nortropane-8-carboxylate], the ED50 in data set [1] turned out to be 56 ± 4 mg/kg; in the data set with ACh it was 6.9 mg/kg; in the data set with Bradykinin (sc, as free base, range in parentheses, tested as p-toluenesulfonate salt) it was 21 mg/kg. Also, the “Antagonist activity vs. phenazocine” value with phenazocine is “inactive (10 & 80)”. In addition, the “depression (footnote h to Bradykinin ED50)” value in the data set on Bradykinin (10 mg/kg s.c.) is given as “Mild depression”; in the data set on Bradykinin (20 and 30 mg/kg s.c.) it was “depression”. Moreover, the “Straub Tail (dose)” value in “Straub Tail observation” (as free base, tested as p-toluenesulfonate salt) was 75 mg/kg. For the same compound, the “locomotor activity (footnote i to Straub Tail)” value in the data set “Straub Tail observation” is given as “Increased locomotor activity”.

As to `CN1[C@@H]2CC[C@H]1CC(C(=O)O)(c1ccccc1)C2` (stereo partly shown) [3-phenyl-3-carboxytropane], the analgesic activity entry in data set [2] is reported as “reported to have analgesic activity”.
